Counter-ions that a name gives are not always drawn.
Assays:
Assay type in all cases: in vivo
Cassia obtusifolia = assay: Field trial with maize, herbicidal action; conditions: 400 g of a.s./ha; application 3-leaf stage; scoring 21 days after application
Procedure: (§1) Transgenic maize plants with a resistance to one or more herbicides (A) together with typical weed plants were grown in the open on 2×5 m plots under natural field conditions; alternatively, weed infestation occurred naturally when the maize plants were grown.
(§2) […] The damage to, and the development of, all aerial parts of the plants was recorded. Scoring was done on the basis of a percentage sale (100% action=all plants destroyed; 50% action=50% of the plants and green parts of the plants destroyed; 0% action=no recognizable effect=like control plot. The mean of the score values of in each case 4 plots was calculated.

Euphorbia heterophylla = assay: Field trial with maize, herbicidal action; conditions: for Herbicidal action (%) against Euphorbia heterophylla: application 6-leaf stage, scoring 44 days after application; for Herbicidal action (%) against EPHHL: application 4-leaf stage, scoring 6 weeks after application
Procedure: as §1, §2

AMARE = assay: Field trial with maize, herbicidal action; conditions: application 2-4-leaf stage, scoring 3 weeks after application
Procedure: as §1, §2

Digitaria sanguinalis = assay: Field trial with maize, herbicidal action; conditions: application 5-6-leaf stage, scoring 11 days after application
Procedure: as §1, §2

Panicum dichotomiflorum = assay: Field trial with maize, herbicidal action; conditions: application 5-6-leaf stage, scoring 11 days after application
Procedure: as §1, §2

Portulaca oleracea = assay: Field trial with maize, herbicidal action
Procedure: as §1, §2

Lolium multiflorum = assay: Field trial with maize, herbicidal action; conditions: application 2- to 4-leaf stage, scoring 26 days after application
Procedure: as §1, §2

Echinochloa crus-galli = assay: Field trial with maize, herbicidal action
Procedure: as §1, §2

Galium aparine = assay: Field trial with maize, herbicidal action; conditions: application 3- to 4-leaf stage, scoring 24 days after application
Procedure: as §1, §2

[1] = test system: Mais LL (Liberty-Link-Mais, maize tolerant or resistant to glufosinate-ammonium); assay: Field trial, damage to transgenic maize (tolerance by crop plants); conditions: for Mais LL: application 3-leaf stage
Procedure: as §1
The damage to, and the development of, all aerial parts of the plants was recorded.
Abbreviations generally used in the tables: • g of a.s./ha=gram of active substance (100% active substance) per hectare • E^A=Total of the herbicidal effects of the individual applications • E^C Colby's expected value (cf. scoring in Table 1) • “Mais LL”=®Liberty-Link-Mais, maize which is tolerant or resistant to glufosinate-ammonium, […]

Brachiaria plantaginea = assay: Field trial with maize, herbicidal action; conditions: application 2-leaf stage, scoring 28 days after application
Procedure: as §1
(§3) 2, 4, 6 and 8 weeks after the application, the herbicidal activity of the active substances or active substance mixtures was scored visually with reference to the treated plots in comparison to untreated control plots. The damage to, and the development of, all aerial parts of the plants was recorded. Scoring was done on the basis of a percentage sale (100% action=all plants destroyed; 50% action=50% of the plants and green parts of the plants destroyed; 0% action=no recognizable effect=like control plot. The mean of the score values of in each case 4 plots was calculated.

Sinapis arvensis = assay: Field trial with maize, herbicidal action; conditions: application 4- to 5-leaf stage, scoring 28 days after application
Procedure: as §1, §3

Sorghum bicolor = assay: Field trial with maize, herbicidal action; conditions: application 4-leaf stage, scoring 28 days after post-emergence application
Procedure: as §1, §3

Sorghum halepense = assay: Field trial with maize, herbicidal action; conditions: application 4-leaf stage, scoring 28 days after application
Procedure: as §1, §3

Convolvulus arvensis = assay: Field trial with maize, herbicidal action; conditions: application 3- to 4-leaf stage, scoring 28 days after application
Procedure: as §1, §3

Commelina benghalensis = assay: Field trial with maize, herbicidal action; conditions: application 3-leaf stage, scoring 42 days after application
Procedure: as §1, §3

Avena fatua = assay: Field trial with maize, herbicidal action; conditions: application 2- to 4-leaf stage, scoring 28 days after application
Procedure: as §1, §3

CP(=O)(O)CCC(N)C(=O)O (stereo not drawn) [(A1.2), glufosinate-monoammonium salt]
Herbicidal action (%) against Cassia obtusifolia (Cassia obtusifolia): 60%
Herbicidal action (%) against Euphorbia heterophylla (Euphorbia heterophylla; 100 g of a.s./ha): 37%
Herbicidal action (%) against Euphorbia heterophylla (Euphorbia heterophylla; 200 g of a.s./ha): 50%
Herbicidal action (%) against EPHHL (Euphorbia heterophylla; 300 g of a.s./ha): 45%
Herbicidal action (%) against Euphorbia heterophylla (Euphorbia heterophylla; 400 g of a.s./ha): 60%
Herbicidal action (%) against EPHHL (Euphorbia heterophylla; 600 g of a.s./ha): 55%
Herbicidal action (%) against AMARE (AMARE; 200 g of a.s./ha): 65%
Herbicidal action (%) against AMARE (AMARE; 300 g of a.s./ha): 84%
Herbicidal action (%) against AMARE (AMARE; 400 g of a.s./ha): 82%
Herbicidal action (%) against AMARE (AMARE; 600 g of a.s./ha): 87%
Herbicidal action (%) against AMARE (AMARE; 1000 g of a.s./ha): 85%
Herbicidal action (%) against Digitaria sanguinalis (Digitaria sanguinalis; 200 g of a.s./ha): 0%
Herbicidal action (%) against Digitaria sanguinalis (Digitaria sanguinalis; 400 g of a.s./ha): 15%
Herbicidal action (%) against Digitaria sanguinalis (Digitaria sanguinalis; 600 g of a.s./ha): 30%
Herbicidal action (%) against Panicum dichotomiflorum (Panicum dichotomiflorum; 200 g of a.s./ha): 8%
Herbicidal action (%) against Panicum dichotomiflorum (Panicum dichotomiflorum; 400 g of a.s./ha): 50%
Herbicidal action (%) against Panicum dichotomiflorum (Panicum dichotomiflorum; 600 g of a.s./ha): 92%
Herbicidal action (%) against Portulaca oleracea (Portulaca oleracea; 250 g of a.s./ha, application 6-leaf stage, scoring 26 days after application): 35%
Herbicidal action (%) against Portulaca oleracea (Portulaca oleracea; 300 g of a.s./ha, application 2- to 4-leaf stage, scoring 28 days after application): 43%
Herbicidal action (%) against Portulaca oleracea (Portulaca oleracea; 450 g of a.s./ha, application 2- to 4-leaf stage, scoring 28 days after application): 50%
Herbicidal action (%) against Portulaca oleracea (Portulaca oleracea; 500 g of a.s./ha, application 6-leaf stage, scoring 26 days after application): 60%
Herbicidal action (%) against Lolium multiflorum (Lolium multiflorum; 200 g of a.s./ha): 0%
Herbicidal action (%) against Lolium multiflorum (Lolium multiflorum; 330 g of a.s./ha): 15%
Herbicidal action (%) against Lolium multiflorum (Lolium multiflorum; 500 g of a.s./ha): 78%
Herbicidal action (%) against Echinochloa crus-galli (Echinochloa crus-galli; 125 g of a.s./ha, application 3- to 4-leaf stage, scoring 42 days after application): 45%
Herbicidal action (%) against Echinochloa crus-galli (Echinochloa crus-galli; 125 g of a.s./ha, application 3-leaf stage, scoring 28 days after application): 25%
Herbicidal action (%) against Echinochloa crus-galli (Echinochloa crus-galli; 200 g of a.s./ha, application 3-leaf stage, scoring 21 days after application): 35%
Herbicidal action (%) against Echinochloa crus-galli (Echinochloa crus-galli; 250 g of a.s./ha, application 3- to 4-leaf stage, scoring 42 days after application): 65%
Herbicidal action (%) against Echinochloa crus-galli (Echinochloa crus-galli; 250 g of a.s./ha, application 3-leaf stage, scoring 28 days after application): 45%
Herbicidal action (%) against Echinochloa crus-galli (Echinochloa crus-galli; 400 g of a.s./ha, application 3-leaf stage, scoring 21 days after application): 68%
Herbicidal action (%) against Echinochloa crus-galli (Echinochloa crus-galli; 500 g of a.s./ha, application 3- to 4-leaf stage, scoring 42 days after application): 78%
Herbicidal action (%) against Echinochloa crus-galli (Echinochloa crus-galli; 500 g of a.s./ha, application 3-leaf stage, scoring 28 days after application): 74%
Herbicidal action (%) against Galium aparine (Galium aparine; 125 g of a.s./ha): 30%
Herbicidal action (%) against Galium aparine (Galium aparine; 250 g of a.s./ha): 45%
Herbicidal action (%) against Galium aparine (Galium aparine; 500 g of a.s./ha): 65%
Mais LL ([1]; 100 g of a.s./ha, Table 11, head names no quantity): 0
Damage to Mais LL in % ([1]; 100 g of a.s./ha, application 6-leaf stage): 0%
Damage to Mais LL in % ([1]; 200 g of a.s./ha, application 2-4-leaf stage): 3%
Mais LL ([1]; 200 g of a.s./ha, Table 11, head names no quantity): 0
Mais LL ([1]; 200 g of a.s./ha, Table 14, head names no quantity): 0
Damage to Mais LL in % ([1]; 200 g of a.s./ha, application 5-6-leaf stage): 2%
Damage to Mais LL in % ([1]; 200 g of a.s./ha, application 6-leaf stage): 0%
Damage to Mais LL in % ([1]; 300 g of a.s./ha, application 2-4-leaf stage): 2%
Mais LL ([1]; 300 g of a.s./ha, Table 11, head names no quantity): 0
Damage to Mais LL in % ([1]; 300 g of a.s./ha, application 4-leaf stage): 0%
Damage to Mais LL in % ([1]; 400 g of a.s./ha, application 2-4-leaf stage): 5%
Mais LL ([1]; 400 g of a.s./ha, Table 14, head names no quantity): 8
Damage to Mais LL in % ([1]; 400 g of a.s./ha, application 5-6-leaf stage): 4%
Damage to Mais LL in % ([1]; 400 g of a.s./ha, application 6-leaf stage): 0%
Damage to Mais LL in % ([1]; 600 g of a.s./ha, application 2-4-leaf stage): 3%
Mais LL ([1]; 600 g of a.s./ha, Table 11, head names no quantity): 0
Damage to Mais LL in % ([1]; 600 g of a.s./ha, application 4-leaf stage): 0%
Damage to Mais LL in % ([1]; 600 g of a.s./ha, application 5-6-leaf stage): 3%
Damage to Mais LL in % ([1]; 1000 g of a.s./ha, application 2-4-leaf stage): 4%
Herbicidal action (%) against Brachiaria plantaginea (Brachiaria plantaginea; 150 g of a.s./ha): 5%
Herbicidal action (%) against Brachiaria plantaginea (Brachiaria plantaginea; 300 g of a.s./ha): 45%
Herbicidal action (%) against Brachiaria plantaginea (Brachiaria plantaginea; 600 g of a.s./ha): 70%
Herbicidal action (%) against Sinapis arvensis (Sinapis arvensis; 230 g of a.s./ha): 45%
Herbicidal action (%) against Sinapis arvensis (Sinapis arvensis; 350 g of a.s./ha): 75%
Herbicidal action (%) against Sorghum bicolor (Sorghum bicolor; 125 g of a.s./ha): 30%
Herbicidal action (%) against Sorghum bicolor (Sorghum bicolor; 250 g of a.s./ha): 50%
Herbicidal action (%) against Sorghum bicolor (Sorghum bicolor; 500 g of a.s./ha): 85%
Herbicidal action (%) against Sorghum halepense (Sorghum halepense; 300 g of a.s./ha): 15%
Herbicidal action (%) against Sorghum halepense (Sorghum halepense; 500 g of a.s./ha): 53%
Herbicidal action (%) against Convolvulus arvensis (Convolvulus arvensis; 200 g of a.s./ha): 0%
Herbicidal action (%) against Convolvulus arvensis (Convolvulus arvensis; 400 g of a.s./ha): 20%
Herbicidal action (%) against Commelina benghalensis (Commelina benghalensis; 100 g of a.s./ha): 43%
Herbicidal action (%) against Commelina benghalensis (Commelina benghalensis; 200 g of a.s./ha): 60.0%
Herbicidal action (%) against Commelina benghalensis (Commelina benghalensis; 300 g of a.s./ha): 63%
Herbicidal action (%) against Commelina benghalensis (Commelina benghalensis; 600 g of a.s./ha): 82%
Herbicidal action (%) against Avena fatua (Avena fatua; 300 g of a.s./ha): 48%
Herbicidal action (%) against Avena fatua (Avena fatua; 450 g of a.s./ha): 50%
